Experimental findings from article PMC7725785, “TRIB3 promotes MYC-associated lymphoma development through suppression of UBE3B-mediated MYC degradation” (Nature Communications, 2020) are described below.

One assay concerns RNAPII. The experiment in a line: ChIP-seq of RNAPII occupancy in Raji cells. The format is cell-based, human. As to conditions: ChIP-seq with spike-in, result in words. How it is done: ChIP assays were performed according to the manufacturer’s protocol using a SimpleChIP® Plus Sonication Chromatin IP Kit (Cell Signaling Technology, Danvers, MA, USA, (#56383). Briefly, cells were fixated with 1% formaldehyde (Sigma Aldrich, F8775) for 8 min, incubated with glycine (50 mM final) for 10 min and washed three times with PBS. After cell lysis and chromatin extraction, chromatin was sonicated to 100–500 bp using a BioRuptor sonicator (Diagenode), followed by centrifugation at 16,000×g for 10 min at 4 °C. To control for experimental variation, our spike-in data were normalized to a spike-in control consisting of a small amount of chromatin from another species. Briefly, Baf3 cell lysates were sonicated exactly as described above and added at a 1:100 ratio of Raji cells to lysates. […] The Qubit® 3.0 A fluorometer was used for quantitation of the ChIP library. […]
The ChIP libraries were sequenced on Illumina HiSeq platform in 150 bp paired-end reads. After quality control, the clean reads were aligned to the human reference genome (Homo sapiens. GRCh38.87v2) with Bowtie v2.1.0. Unambiguously mapped reads were retained for subsequent generation of binding profiles, heatmaps and calling of peaks. […] Mapped reads were visualized using the Integrative Genomics Viewer (IGV). We next used the murine spike-in to quantitatively normalize different samples. […]

For the next assay, the system named is MYC and UBE3B. Put plainly: MYC/UBE3B colocalized foci in Raji cells. The class given is cell-based, human. On the procedure: A total of 1 × 10^6 cells were seeded overnight in a six-well plate. […] The cells were then treated with the Duolink In Situ Red Starter Mouse/Rabbit kit (Sigma Aldrich, DUO92101-1KT) according to the manufacturer’s instructions. Images were captured with an OLYMPUS confocal microscope.
For immunofluorescence staining, cells seeded on coverslips were briefly washed with PBS and fixed with 4% buffered paraformaldehyde for 15 min, permeabilized with 0.5% Triton X- 100 for 15 min, blocked with 3% BSA for 30 min at 37 °C, and stained with specific primary antibodies followed by corresponding secondary antibodies. Nuclei were counterstained with DAPI. Images were captured using a confocal fluorescent microscope (Olympus Microsystems, CA, USA). Quantitative image analysis was performed with the Imaris 9.3.1 software. Pearson’s coefficient was use to analyze colocalization between two target proteins.

For assay [1], the system named is TRIB3-MYC interaction and MYC expression. Put plainly: TRIB3/MYC Co-IP and MYC immunoblot in spleens and LNs of treated Myc^Eμ mice. The class given is in vivo, mouse. As to conditions: Myc^Eμ mice; result in words. On the procedure: To evaluate the survival rate of secondary recipients, these mice were monitored for 70 days. For the evaluation of IHC staining and protein expression, three mice of each group were killed at the end of treatment, and the thymuses, spleens and LNs were collected for pathology detection, Co-IP, and western blot assays.
Co-IP experiments were performed as described previously. Briefly, cells were collected and lysed for 30 min on ice. Soluble lysates were incubated with the indicated antibodies at 4 °C overnight, followed by incubation with Protein A/G Plus-Agarose (Santa Cruz Biotechnology, TX, USA) at 4 °C for 2 h. Soluble lysates were incubated with the indicated Anti-Myc magnetic beads (Bimake.com, B26302), Anti-Flag Affinity Gel (Bimake.com, B23102) or Anti-HA Affinity Gel (Bimake.com, B23302) at 4 °C overnight. Immunocomplexes were separated from the beads and then boiled for 10 min. The precipitated proteins were subjected to SDS-PAGE and blotted with specific antibodies. For immunoblotting assays, proteins were extracted from cells, spleens, or lymphoma tissues using RIPA buffer (Cell Signaling Technology, MA, USA). A BCA Protein Assay Kit was used to determine protein concentrations. Protein extracts were separated by SDS-PAGE, transferred onto PVDF membranes, and subjected to immunoblot analysis. […]
A general note: Immunoblotting shows a protein as a band on a membrane.

In assay [2] the test system is MYC transcriptional activity. The experiment in a line: E-box luciferase reporter assay of MYC transcriptional activity in Raji cells. As to conditions: 24 h after transfection, versus PCON, result in words. The class given is cell-based, human. How it is done:
Cells were seeded in 12-well plates and transfected with E-box-dependent luciferase reporters (Yeasen Inc.) using VigoFect (Vigorous Biotechnology Beijing, China). pTK-Renilla was used as an internal control. Luciferase activity was measured 20–24 h after transfection using the Dual-luciferase Reporter Assay System (Promega, USA).
A general note: A reporter such as luciferase makes a cellular process visible.

The subject of a further assay is MYC ubiquitination. Put plainly: MYC ubiquitination in PCON- and PCM4-treated Raji cells. As to conditions: lymphoma cells; result in words. The class given is cell-based, human.

Where “and” joins values, the source holds several entries; their conditions need not be identical. Equal values may be shown once.

Regarding “HLYVSPWGGKRREQLKHKLEQLR [PCM4, fused peptide generated by linking CM4 to a cell-penetrating peptide]”, the “association of RNAPII with promoters” value in the assay on RNAPII is on record as “globally reduced the association of RNAPII with promoters”. For the same sequence, the “Fig 6f. MYC/UBE3B foci per cell” value in the assay on MYC and UBE3B (30 Min, single cells, n = 20) is 12 and 11. Further, the “interaction of MYC and UBE3B” value with MYC and UBE3B (result in words) was “rescued the interaction of MYC and UBE3B”. In addition, the “TRIB3-MYC interaction and MYC expression in the LNs and spleens” value in assay [1] was “decrease in the TRIB3-MYC interaction and MYC expression”. Also, the MYC transcriptional activity result in assay [2] is “reduced MYC transcriptional activity”. Moreover, the “MYC ubiquitination and degradation” value in the assay with MYC ubiquitination is “rescued MYC ubiquitination and degradation”.
